# From US12595252B2, “Inhibitors of SARM1” (DISARM THERAPEUTICS, INC., priority 2019, dated 2026)
# Target: T1, SARM1 (Homo sapiens, UniProt Q6SZW1)
# T1 construct: made in house; host or cells: NRK1-HEK293T cells, transiently transfected; clarified lysate used unpurified
# T1 sequence (Q6SZW1 with tags, fused parts or gaps): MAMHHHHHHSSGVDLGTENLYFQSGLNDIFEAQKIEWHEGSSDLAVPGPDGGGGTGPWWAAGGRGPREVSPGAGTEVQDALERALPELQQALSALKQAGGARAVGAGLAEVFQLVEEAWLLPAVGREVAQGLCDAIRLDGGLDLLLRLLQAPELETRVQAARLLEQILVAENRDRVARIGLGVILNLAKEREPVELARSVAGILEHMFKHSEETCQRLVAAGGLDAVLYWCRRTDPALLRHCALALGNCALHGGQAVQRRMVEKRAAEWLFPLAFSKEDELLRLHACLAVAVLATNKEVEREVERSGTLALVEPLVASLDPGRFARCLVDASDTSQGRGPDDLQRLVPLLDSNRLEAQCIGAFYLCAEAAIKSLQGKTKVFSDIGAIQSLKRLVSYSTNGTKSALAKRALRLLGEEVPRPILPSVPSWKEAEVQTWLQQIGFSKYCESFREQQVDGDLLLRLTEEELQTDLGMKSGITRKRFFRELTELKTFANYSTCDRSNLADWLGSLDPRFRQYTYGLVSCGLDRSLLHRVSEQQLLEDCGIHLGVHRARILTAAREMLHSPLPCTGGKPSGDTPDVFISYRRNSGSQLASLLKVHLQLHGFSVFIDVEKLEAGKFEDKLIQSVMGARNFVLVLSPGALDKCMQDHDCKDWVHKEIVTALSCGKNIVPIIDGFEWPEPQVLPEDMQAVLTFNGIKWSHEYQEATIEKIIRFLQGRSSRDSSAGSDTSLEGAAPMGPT
# Test: ARM-SAM-TIR SARM1 IC50 assay (NADase activity, NAD+ cleavage)
# Format: biochemical
# Settings: not given
# Procedure: This Example describes an assay of ARM-SAM-TIR NADase activity and use of this assay to measure the efficacy of compounds of Formula I to block SARM1 mediated NAD+ cleavage. This assay is optimized in such a way as to characterize the efficacy of the compounds in Formula I to inhibit SARM1 activity and to calculate an IC50 value for each compound. This assay makes use of full length SARM1, which encompasses the ARM, SAM and TIR domains.
# NRK1-HEK293T cells were seeded onto 150 cm^2 plates at 20×10^6 cells per plate. The next day, the cells were transfected with 15 μg ARM-SAM-TIR expression plasmid, SEQ ID NO: 1.
# The cultures were supplemented with 1 mM NR at time of transfection to minimize toxicity from ARM-SAM-TIR overexpression. Forty-eight hours after transfection, cells were harvested, pelleted by centrifugation at 1,000 rpm (Sorvall ST 16R centrifuge, Thermo Fisher), and washed once with cold PBS (0.01 M phosphate buffered saline NaCl 0.138 M; KCl 0.0027 M; pH 7.4). The cells were resuspended in PBS with protease inhibitors (cOmplete™ protease inhibitor cocktail, Roche product #11873580001) and cell lysates were prepared by sonication (Branson Sonifer 450, output=3, 20 episodes of stroke). The lysates were centrifuged (12,000×g for 10 min at 4° C.) to remove cell debris and the supernatants (containing ARM-SAM-TIR protein) were stored at −80° C. for later use in the in vitro ARM-SAM-TIR NADase assay (see below). Protein concentration was determined by the Bicinchoninic (BCA) method and used to normalize lysate concentrations.
# The enzymatic assay was performed in a 384-well polypropylene plate in Dulbecco's PBS buffer in a final assay volume of 20 μL. ARM-SAM-TIR lysate with a final concentration of 5 μg/mL was pre-incubated with the respective compound at 1% DMSO final assay concentration over 2 h at room temperature. The reaction was initiated by addition of 5 μM final assay concentration of NAD+ as substrate. After a 2 hr room temperature incubation, the reaction was terminated with 40 μL of stop solution of 7.5% trichloroacetic acid in acetonitrile. The NAD+ and ADPR concentrations were analyzed by a RapidFire High Throughput Mass Spectrometry System (Agilent Technologies, Santa Clara, Calif.) using an API4000 triple quadrupole mass spectrometer (AB Sciex Framingham, Mass.).
row,Structure (SMILES),IC50 [µM]
1,COc1cncc(NCc2ccc(N3CCNCC3)nc2)n1 [Example 81],5 to 15

# Same assay, conditions: ARM-SAM-TIR lysate 5 μg/mL from NRK1-HEK293T cells; 2 h pre-incubation; 5 μM NAD+; 2 hr room temperature; NAD+ and ADPR by RapidFire MS; read-out: SARM1 IC50
row,Structure (SMILES),IC50 [µM]
1,COc1cncc(NCc2ccc(N3CCN4CCCC4C3)nc2)n1 (stereo not drawn) [Example 131],< 5
2,COc1cncc(NCc2cccc(F)c2)n1 [Example 39],5 to 15
3,COc1cncc(NCc2cn(C)cn2)n1 [Example 55],15 to 30
4,COc1cc(NCc2cccnc2)[nH]c(=O)c1 [Example 108],> 30
5,COc1nc(NCc2cccnc2)cnc1C [Example 35],5 to 15
6,CCOc1cncc(NCc2cnccn2)n1 [Example 183],> 30
7,COc1cncc(NCc2cnn(C3CCN(C)CC3)c2)n1 [Example 119],< 5
8,CCNc1cncc(NCc2cccnc2)n1 [Example 25],15 to 30
9,CCN1CCN(c2cccc(CNc3cncc(OC)n3)c2)CC1 [Example 155],5 to 15
10,COc1cncc(NCc2cnc(N3CCNCC3C)nc2)n1 (stereo not drawn) [Example 112],5 to 15
11,COc1cncc(NCc2cnn(C3CCCCC3)c2)n1 [Example 106],5 to 15
12,COc1cncc(NCC2CCOC2)n1 (stereo not drawn) [Example 50],15 to 30
13,COc1cncc(NCc2ccc(N3CCC(O)CC3)nc2)n1 [Example 80],5 to 15
14,COc1cncc(NS(=O)(=O)c2cccnc2)n1 [Example 17],> 30
15,CCOc1cncc(NC(=O)c2cccnc2)n1 [Example 191],> 30
16,Cn1cc(CNc2cncc(O)n2)cn1 [Example 214],> 30
17,Cn1cc(CNc2cncc(C#N)n2)cn1 [Example 75],> 30
18,COc1cncc(NCc2ccccc2F)n1 [Example 85],5 to 15
19,Cn1cc(CNc2cncc(OCC(F)F)n2)cn1 [Example 116],15 to 30
20,COc1cncc(NCc2cccc(C#N)c2)n1 [Example 128],5 to 15
21,COc1cnnc(NCc2cn[nH]c2)c1 [Example 135],15 to 30

row,Structure (SMILES),IC50 [µM]
1,COc1cncc(N(C)Cc2cccnc2)n1 [Example 202],> 30
2,CCN(C)c1cncc(NCc2cccnc2)n1 [Example 30],> 30
3,COc1cncc(NCc2ccc(OC(F)(F)F)cc2)n1 [Example 143],5 to 15
4,CNc1cncc(OCCCN)n1 [Example 172],> 30
5,Clc1cncc(OCc2cccnc2)n1 [Example 189],> 30
6,CNc1cncc(OC)n1 [Example 152],< 5
7,COc1cncc(NCc2ccc(C(N)=O)cc2)n1 [Example 64],5 to 15
8,CNc1ccnc(NC)n1 [Example 217],> 30
9,COc1cncc(NCc2cnn(C)c2)n1 [Example 21],15 to 30
10,COc1cncc(NCc2ccoc2)n1 [Example 58],5 to 15
11,COc1cncc(NCc2cccn2C)n1 [Example 59],15 to 30
12,COc1cc(NCc2ccc(S(N)(=O)=O)cc2)cnn1 [Example 175],> 30
13,CNc1cncc(OCCCCO)n1 [Example 174],< 5
14,COc1cncc(NCc2ccn(C)c(=O)c2)n1 [Example 157],15 to 30
15,COc1cncc(NC(=O)c2ccc3ccc(Cl)cc3n2)n1 [Example 46],> 30
16,COc1cncc(NC(C)c2ccccc2)n1 (stereo not drawn) [Example 32],15 to 30
17,COc1cncc(NCc2cccc(S(C)(=O)=O)c2)n1 [Example 127],15 to 30
18,COc1cncc(NCc2cc(C)no2)n1 [Example 56],5 to 15
19,CCOc1cncc(NC(C)=O)n1 [Example 193],> 30
20,COc1cncc(NCc2cn[nH]c2)n1 [Example 20],5 to 15
21,COc1cncc(NCc2ccc(NC(C)=O)cc2)n1 [Example 47],< 5

row,Structure (SMILES),IC50 [µM]
1,COc1cncc(NCc2cn(C)nc2C)n1 [Example 206],> 30
2,CCN1CCN(c2ccc(CNc3cnccn3)cn2)CC1 [Example 178],> 30
3,COc1cncc(NCc2ccc(C(F)(F)F)nc2)n1 [Example 91],15 to 30
4,CCCCN1CCN(c2ccc(CNc3cncc(OC)n3)cn2)CC1 [Example 148],5 to 15
5,Clc1cncc(NCc2cccnc2)n1 [Example 187],> 30
6,c1ccc(COc2cncc(NCc3cccnc3)n2)cc1 [Example 198],> 30
7,COc1cncc(NCc2ccn(C)n2)n1 [Example 54],5 to 15
8,CNc1cc(OC)cnn1 [Example 161],> 30
9,COc1cncc(NS(=O)(=O)c2ccccc2)c1 [Example 209],> 30
10,CCOc1cncc(NCc2ccc(N3CCN(CC)CC3)cc2)n1 [Example 7],5 to 15
11,COc1cncc(NCc2ccc(NCCN(C)C)nc2)n1 [Example 113],5 to 15
12,COc1cnnc(NCc2cccnc2)c1 [Example 94],15 to 30
13,CCN1CCN(c2ccc(CNc3cncc(OC)n3)cn2)CC1 [Example 8],5 to 15
14,COc1cncc(NCC(O)c2cccc(C(F)(F)F)c2)n1 (stereo not drawn) [Example 45],5 to 15
15,c1cncc(CNc2cncc(-n3cccn3)n2)c1 [Example 28],5 to 15
16,COc1ccc(CNc2cncc(OC)n2)cc1 [Example 38],5 to 15
17,COc1cncc(NCc2ccc(F)cc2)n1 [Example 86],5 to 15
18,COc1cncc(NCc2cnn3ccccc23)n1 [Example 90],15 to 30
19,COc1cncc(NCc2ccc(C(C)(C)O)cc2)n1 [Example 144],5 to 15
20,Brc1cncc(NCc2cccnc2)n1 [Example 186],> 30
21,CCOc1cncc(NS(C)(=O)=O)n1 [Example 195],> 30

row,Structure (SMILES),IC50 [µM]
1,COc1cncc(NCc2ccc(N3CCN(c4ccccc4)CC3)nc2)n1 [Example 216],> 30
2,COc1cncc(NCC2CCCOC2)n1 (stereo not drawn) [Example 210],> 30
3,COc1cncc(NCc2ccc(NS(C)(=O)=O)nc2)n1 [Example 133],5 to 15
4,CN(C)Cc1ccc(N2CCN(c3cncc(OCC4CCCC4)n3)CC2)nc1 [Example 2],> 30
5,COc1cncc(NCc2ccc(N3CCN(C(=O)OC(C)(C)C)CC3)nc2)n1 [Example 132],5 to 15
6,COc1cncc(C(=O)NCc2cccnc2)n1 [Example 24],> 30
7,COc1cncc(NCc2cccc(N3CCN(C(=O)OC(C)(C)C)CC3)c2)n1 [Example 123],5 to 15
8,COc1cncc(NCc2ccc(Br)cc2)n1 [Example 101],< 5
9,COc1cc(NCc2cccnc2)n[nH]c1=O [Example 140],15 to 30
10,CCOc1cncc(NCc2ccccc2)n1 [Example 10],15 to 30
11,Brc1cncc(CCc2ccccc2)n1 [Example 72],> 30
12,COc1cncc(NCc2ccc(N3CCCCC3)nc2)n1 [Example 84],5 to 15
13,CNc1cncc(NCCc2cnn(C)c2)n1 [Example 167],15 to 30
14,COc1cncc(NCc2ccc(N3CCOCC3)nc2)n1 [Example 77],5 to 15
15,COc1cc(NC(=O)c2cccnc2)cnn1 [Example 136],5 to 15
16,Cn1cc(CNc2cncc(OCc3ccccc3)n2)cn1 [Example 115],> 30
17,COc1ncc(NCc2cccnc2)nc1OC [Example 43],15 to 30
18,CNc1cncc(OCCCCNC(=O)OC(C)(C)C)n1 [Example 169],> 30
19,COc1cncc(NCc2ccc(N)nc2)n1 [Example 118],< 5
20,CNc1cncc(OC)c1 [Example 171],5 to 15
